Measured values taken from patent US9833454B2, “Difluoromethoxy compound with low bioactivation potential for the reduction of beta-amyloid production” (BRISTOL-MYERS SQUIBB COMPANY, priority 2014, dated 2017).
Several values for one entry are separate records, joined by “and”; a condition that tells them apart may be missing. Equal entries are not always repeated. Where two headings read alike, the source gives them in different places.

Legend:
[1] = target: T1, CYP1A2 (Homo sapiens, UniProt P05177); assay: Inhibition of CYP enzymes in human liver microsomes (HLM), CYP1A2
T1 sequence (P05177 1-516): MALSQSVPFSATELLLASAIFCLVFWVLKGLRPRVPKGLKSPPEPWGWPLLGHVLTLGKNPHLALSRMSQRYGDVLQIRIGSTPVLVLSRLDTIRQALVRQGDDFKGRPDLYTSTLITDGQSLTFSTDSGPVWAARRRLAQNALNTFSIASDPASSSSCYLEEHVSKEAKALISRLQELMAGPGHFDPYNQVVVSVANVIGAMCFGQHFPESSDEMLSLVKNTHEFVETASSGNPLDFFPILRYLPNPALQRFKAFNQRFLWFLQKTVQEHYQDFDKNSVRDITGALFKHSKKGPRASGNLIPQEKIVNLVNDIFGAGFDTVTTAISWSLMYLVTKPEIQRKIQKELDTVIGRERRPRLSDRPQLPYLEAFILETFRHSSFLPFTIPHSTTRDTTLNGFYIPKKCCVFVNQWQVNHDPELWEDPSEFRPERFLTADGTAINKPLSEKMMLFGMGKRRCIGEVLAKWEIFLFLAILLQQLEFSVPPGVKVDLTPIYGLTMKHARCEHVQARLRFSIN

[2] = target: CYP2C19 (Homo sapiens, UniProt P33261); assay: Inhibition of CYP enzymes in human liver microsomes (HLM), CYP2C19
Sequence of CYP2C19 (P33261 whole entry): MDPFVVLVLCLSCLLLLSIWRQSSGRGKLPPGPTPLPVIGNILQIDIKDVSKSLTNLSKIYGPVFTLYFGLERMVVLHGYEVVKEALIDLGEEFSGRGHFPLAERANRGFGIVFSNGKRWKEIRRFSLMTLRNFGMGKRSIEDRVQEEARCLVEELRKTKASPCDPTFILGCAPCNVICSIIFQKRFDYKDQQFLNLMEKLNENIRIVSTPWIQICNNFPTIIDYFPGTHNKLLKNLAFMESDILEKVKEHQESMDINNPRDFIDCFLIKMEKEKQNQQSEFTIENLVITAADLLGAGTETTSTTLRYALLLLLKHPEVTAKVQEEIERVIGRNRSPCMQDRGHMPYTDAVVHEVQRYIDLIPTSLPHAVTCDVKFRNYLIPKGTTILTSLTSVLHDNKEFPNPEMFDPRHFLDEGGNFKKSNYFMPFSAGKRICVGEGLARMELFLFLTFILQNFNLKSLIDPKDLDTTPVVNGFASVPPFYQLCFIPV

[3] = target: T2, CYP2D6 (Homo sapiens, UniProt P10635); assay: biochemical
T2 sequence (P10635 whole entry): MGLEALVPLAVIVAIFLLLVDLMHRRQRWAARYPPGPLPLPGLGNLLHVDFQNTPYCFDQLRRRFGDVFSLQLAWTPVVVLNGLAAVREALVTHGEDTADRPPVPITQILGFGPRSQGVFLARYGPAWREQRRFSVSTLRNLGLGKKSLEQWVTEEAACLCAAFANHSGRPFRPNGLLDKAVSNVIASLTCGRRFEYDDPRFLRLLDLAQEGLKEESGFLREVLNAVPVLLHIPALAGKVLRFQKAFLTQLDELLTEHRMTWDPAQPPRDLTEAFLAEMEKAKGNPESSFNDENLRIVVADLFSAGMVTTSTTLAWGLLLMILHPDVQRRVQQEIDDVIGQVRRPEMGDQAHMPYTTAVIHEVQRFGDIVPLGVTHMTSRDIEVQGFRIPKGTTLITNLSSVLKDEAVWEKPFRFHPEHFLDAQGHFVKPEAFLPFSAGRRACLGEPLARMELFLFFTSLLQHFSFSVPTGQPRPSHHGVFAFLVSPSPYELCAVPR

[4] = target: T3, CYP2C8 (Homo sapiens, UniProt P10632); assay: Inhibition of recombinant CYP enzymes (rCYP), CYP2C8; format: in vitro ADME; conditions: average of two experiments, read-out: rCYP IC50 2C8
T3 sequence (P10632 1-490): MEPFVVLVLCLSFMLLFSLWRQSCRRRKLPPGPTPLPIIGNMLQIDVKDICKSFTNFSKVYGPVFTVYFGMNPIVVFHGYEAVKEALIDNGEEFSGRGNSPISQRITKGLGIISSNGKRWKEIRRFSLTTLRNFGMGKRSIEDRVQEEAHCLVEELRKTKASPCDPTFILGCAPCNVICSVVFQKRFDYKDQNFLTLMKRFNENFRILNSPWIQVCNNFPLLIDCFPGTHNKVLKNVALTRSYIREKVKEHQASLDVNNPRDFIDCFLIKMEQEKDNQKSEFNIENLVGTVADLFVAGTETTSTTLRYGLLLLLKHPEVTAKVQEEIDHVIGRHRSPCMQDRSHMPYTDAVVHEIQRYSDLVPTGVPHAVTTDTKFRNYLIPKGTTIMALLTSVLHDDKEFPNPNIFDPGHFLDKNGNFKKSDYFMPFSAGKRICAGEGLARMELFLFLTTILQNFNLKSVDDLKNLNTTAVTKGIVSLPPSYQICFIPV

[5] = target: T4, CYP3A4 (Homo sapiens, UniProt P08684); assay: biochemical
T4 sequence (P08684 whole entry): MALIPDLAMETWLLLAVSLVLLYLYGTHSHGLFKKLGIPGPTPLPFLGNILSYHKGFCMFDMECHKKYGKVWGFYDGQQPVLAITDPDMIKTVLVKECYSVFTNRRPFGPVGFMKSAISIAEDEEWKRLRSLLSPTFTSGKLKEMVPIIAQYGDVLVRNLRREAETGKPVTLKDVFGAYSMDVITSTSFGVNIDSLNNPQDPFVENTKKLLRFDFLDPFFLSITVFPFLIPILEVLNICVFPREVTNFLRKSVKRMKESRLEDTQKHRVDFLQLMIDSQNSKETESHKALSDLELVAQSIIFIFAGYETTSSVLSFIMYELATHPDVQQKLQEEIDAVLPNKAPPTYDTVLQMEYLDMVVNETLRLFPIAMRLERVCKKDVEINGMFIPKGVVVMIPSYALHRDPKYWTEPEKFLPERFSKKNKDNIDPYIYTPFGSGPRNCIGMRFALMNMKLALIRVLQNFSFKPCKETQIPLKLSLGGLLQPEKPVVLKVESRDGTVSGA

[6] = tested on: Mouse brain Aβ42; assay: Mouse brain Aβ42; format: in vivo; conditions: for Mouse Aβ42: mouse brain; for B/P / Compound concentration in the Mouse Aβ42 study: mouse; for Compound concentration in the Mouse Aβ42 study: matrix not given
Experimental: Aβ42 IC50 was determined as described by Gillman, J. E. Starrett Jr., M. F. Parker, et al., “Discovery and evaluation of BMS-708163, a potent, and orally bioavailable gamma-secretase inhibitor”, ACS Medicinal Chemistry Letters, vol. 1., pp. 120-124, 2010. Mouse brain Aβ42 was determined as described by J. H. Toyn, X-A. Lin, M. W. Thompson et al., “Viable mouse gene ablations that robustly alter bran Abeta levels are are”, Biomed. Central Neuroscience, vol. 11, pp. 143, […].

[7] = target: adenosine 2A receptor (Homo sapiens, UniProt P29274); assay: In vitro safety: off-target receptor binding and enzyme assays, A2A; conditions: in vitro safety panel
Sequence of adenosine 2A receptor (P29274 whole entry): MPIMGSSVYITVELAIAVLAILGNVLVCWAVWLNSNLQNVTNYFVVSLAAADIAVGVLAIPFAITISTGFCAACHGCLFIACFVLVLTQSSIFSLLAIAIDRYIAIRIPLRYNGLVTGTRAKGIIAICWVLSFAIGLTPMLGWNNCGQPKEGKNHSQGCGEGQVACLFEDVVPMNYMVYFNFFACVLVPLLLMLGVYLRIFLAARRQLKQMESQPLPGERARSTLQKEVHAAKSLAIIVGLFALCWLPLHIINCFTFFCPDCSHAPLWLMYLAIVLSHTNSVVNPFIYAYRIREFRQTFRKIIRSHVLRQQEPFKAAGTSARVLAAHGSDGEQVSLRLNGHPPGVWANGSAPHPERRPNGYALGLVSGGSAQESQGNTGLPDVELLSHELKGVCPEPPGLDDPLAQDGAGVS
Experimental: (§1) A range of off-target receptor binding assays and enzyme assays were carried out using conventional methods available in the art.

[8] = tested on: major human Cytochrome P450 (CYP) enzymes; assay: HLM TDI panel, other CYP enzymes; format: in vitro ADME; conditions: CYP enzymes other than 3A4 and 2D6
[9] = target: T5, CYP2B6 (Homo sapiens, UniProt P20813); assay: Inhibition of recombinant CYP enzymes (rCYP), CYP2B6; format: in vitro ADME; conditions: average of two experiments, read-out: rCYP IC50 2B6
T5 sequence (P20813 1-491): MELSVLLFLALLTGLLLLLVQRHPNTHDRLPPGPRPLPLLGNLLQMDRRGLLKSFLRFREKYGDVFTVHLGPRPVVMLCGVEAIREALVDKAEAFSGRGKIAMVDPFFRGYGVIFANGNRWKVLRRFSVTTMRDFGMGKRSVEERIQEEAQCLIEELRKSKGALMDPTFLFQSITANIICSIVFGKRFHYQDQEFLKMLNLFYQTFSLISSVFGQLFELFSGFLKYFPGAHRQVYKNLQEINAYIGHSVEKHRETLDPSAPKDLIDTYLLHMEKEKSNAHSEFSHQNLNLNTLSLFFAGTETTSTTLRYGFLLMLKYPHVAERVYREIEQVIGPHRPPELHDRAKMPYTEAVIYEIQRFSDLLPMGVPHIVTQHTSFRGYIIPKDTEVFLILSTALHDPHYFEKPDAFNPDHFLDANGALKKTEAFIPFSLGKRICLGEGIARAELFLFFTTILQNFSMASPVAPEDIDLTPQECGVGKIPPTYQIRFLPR

[10] = target: T4, CYP3A4; assay: Inhibition of CYP enzymes in human liver microsomes (HLM), CYP3A4 (midazolam and testosterone); conditions: IC50 shift 0 vs 30 min preincubation (TDI ratio)
[11] = target: T2, CYP2D6; assay: Inhibition of recombinant CYP enzymes (rCYP), CYP2D6; format: in vitro ADME; conditions: average of two experiments, read-out: rCYP IC50 2D6
[12] = target: dopamine transporter (Homo sapiens, UniProt Q01959); assay: In vitro safety: off-target receptor binding and enzyme assays, DAT; conditions: in vitro safety panel
Sequence of dopamine transporter (Q01959 whole entry): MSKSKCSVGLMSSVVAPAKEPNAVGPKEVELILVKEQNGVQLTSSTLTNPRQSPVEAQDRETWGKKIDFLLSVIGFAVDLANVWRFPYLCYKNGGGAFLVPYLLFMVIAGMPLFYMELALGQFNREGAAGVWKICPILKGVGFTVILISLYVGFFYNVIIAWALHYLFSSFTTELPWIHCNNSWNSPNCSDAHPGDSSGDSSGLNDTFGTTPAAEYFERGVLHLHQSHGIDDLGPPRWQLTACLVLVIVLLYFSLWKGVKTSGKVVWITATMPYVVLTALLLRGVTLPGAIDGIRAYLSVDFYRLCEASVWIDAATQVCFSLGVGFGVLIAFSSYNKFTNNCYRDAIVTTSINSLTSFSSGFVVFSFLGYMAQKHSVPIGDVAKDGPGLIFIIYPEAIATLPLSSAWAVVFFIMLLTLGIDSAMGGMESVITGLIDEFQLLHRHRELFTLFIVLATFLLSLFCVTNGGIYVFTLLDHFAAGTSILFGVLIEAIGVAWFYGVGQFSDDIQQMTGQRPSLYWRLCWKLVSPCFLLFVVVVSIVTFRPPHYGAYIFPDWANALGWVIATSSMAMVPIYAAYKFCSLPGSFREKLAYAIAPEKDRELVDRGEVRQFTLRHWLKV
Experimental: as §1

[13] = HLM, IC50 shift 0 vs 30 min preincubation (TDI ratio)

- IC50 [1]: > 40 µM
- IC50 Ratio 1A2 [1, 13]: 1.0
- IC50 ([1]; read-out: IC50-30 min 1A2, HLM, 30 min preincubation with NADPH): > 40 µM
- IC50 Ratio 2C19 [2, 13]: 1.9
- IC50 ([2]; IC50-0 min 2C19, HLM, 0 min preincubation): 22.6 µM
- IC50 ([2]; IC50-30 min 2C19, HLM, 30 min preincubation with NADPH): 12.2 µM
- IC50 [3]: 34.5 µM and 15.6 µM
- IC50 [4]: 0.96 µM
- IC50 [5]: ~40 µM and 12 µM and 15.1 µM and 4.5 µM and ~12 µM
- B/P ([6]; 8 mpk): 0.7
- Compound concentration in the Mouse Aβ42 study ([6]; 8 mpk): 391 nM
- B/P ([6]; 30 mpk): 1.4
- Compound concentration in the Mouse Aβ42 study ([6]; 30 mpk): 1334 nM
- HLM TDI panel TDI ratio, others [8]: < 2
- IC50 [9]: > 20 µM
- IC50 Ratio 3A4-(MDZ) ([10]; midazolam probe): 2.6
- IC50 Ratio 3A4-(TST) ([10]; testosterone probe): 2.7
- IC50 [11]: > 20 µM
SMILES: CNc1nc(Nc2ccc(-n3cnc(C)n3)c(OC(F)F)c2)nc2c1C(C)(C)CC2c1ccc(F)cc1 (single isomer, unassigned) [Enantiomer 1, N2-(3-(difluoromethoxy)-4-(3-methyl-1H-1,2,4-triazol-1-yl)phenyl)-7-(4-fluorophenyl)-N4,5,5-trimethyl-6,7-dihydro-5H-cyclopenta[d]pyrimidine-2,4-diamine]
- Mouse Aβ42 ([6]; 8 mpk): 68%
- Mouse Aβ42 ([6]; 30 mpk): 29%
- IC50 [7]: 2 µM
- IC50 [12]: 8 to 10 µM
